From patent US20120101099A1, “HISTONE DEACETYLASE INHIBITORS” (ANTHEM BIOSCIENCES PRIVATE LIMITED, priority 2009, published 2012)
Structures can show the parent of a compound that is named as a salt. Where two headings read alike, the source gives them in different places.

What was measured:
Caspase-3 = Caspase-3 activity in HT-29 cells; assay type: cell-based; conditions: Homo sapiens, 48 hours
Method: Caspase-3 activity was measured in HT-29 cells using Caspase-3 assay kit, (Sigma). HT-29 cells were seeded (10,000 cells/well) in a 96 well plate and incubated overnight. Cells were treated with several concentrations (30, 10, 3, 1, 0.3, 0.1, 0.03, 0.01 μM) of the compounds and incubated for 48 hours and the cells were lysed. Assay was carried out according to the manufacturer's protocol. The fluorescent substrate was added in to the cell lysate and the fluorescence was measured at λexi360 and λemi460.

NCI-H460 = assay: Cell proliferation assay (MTT); assay type: cell-based; conditions: Homo sapiens
Procedure, shortened: (§1)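 MTT read-out, A570 after 3 h dye incubation and DMSO solubilisation. Percentage growth vs T0 plate measured at time of dosing; GI50 interpolated from growth curves.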

PA-1 = assay: Cell proliferation assay (MTT); assay type: cell-based; conditions: Homo sapiens
Procedure, shortened: as §1

786-O = assay: Anti-proliferative activity (GI50); assay type: cell-based; conditions: Homo sapiens, 786-0; Table 9; Renal
Method: (§2) Cells were seeded in a 96-well cell culture plates at a concentration of 10,000 cells per well and incubated at 37° C. in CO2 incubator.
(§3) Twenty-four hours later cells were treated with different concentrations (100, 10, 1, 0.1, and 0.01 μM) of compound dissolved in DMSO and incubated for 48 hours. For To measurement, 24 hours after seeding the cells, 20 μL of 3-(4.5-dimethyl-2- thiazolyl)-2,5-diphenyl-2H-tetrazolium (MTT) solution per well was added to the T0 plate and incubated for 3 hours at 37° C. in a CO2 incubator.
(§4) The plate containing cells and test compounds was treated similarly after 48 hours of incubation. After 3 hours of MTT addition, well contents were aspirated carefully followed by addition of 100 μL DMSO per well. Plates were agitated to ensure dissolution of the formazan crystals in DMSO and absorbance was read at 570 nm (A570). […] From the percentage growths a dose response curve was generated and GI50 values were interpolated from the growth curves.

SK-OV-3 = assay: Anti-proliferative activity (GI50); assay type: cell-based; conditions: Homo sapiens, Table 9, Ovary
Method: as §2, §3, §4

NCI-H23 = assay: Anti-proliferative activity (GI50); assay type: cell-based; conditions: Homo sapiens, Table 9, Lung
Method: as §2, §3, §4

Hela-229 = assay: Anti-proliferative activity (GI50); assay type: cell-based; conditions: Homo sapiens, Table 9, Cervix
Method: as §2, §3, §4

[1] = tested on: human HDAC (Hela cells nuclear extract); assay: HDAC activity screening, Hela nuclear extract, Boc-Lys(Ac)-AMC substrate; assay type: biochemical; conditions: for HDAC % Inhibition (1 μM): 1 μM compound; for HDAC % Inhibition (10 μM): 10 μM compound
Method: To study the human HDAC inhibition the in-house 96 well plate assay have been established using fluorescent substrate (Boc-Lys (Ac)-AMC Substrate). Hela cells nuclear extract have been used as enzyme source.
Assay was performed in 96-well black microplate and total volume of the assay was 100 μL. Hela nuclear extract was diluted HDAC assay buffer (final concentration of 3.0 μg/mL). Enzyme mixture was made of 10 μL of diluted enzyme and 30 μL of HDAC buffer. 40 μl of enzyme mixture followed by 10 μL of test compound (final concentration from 0.01 to 10 μM) or vehicle (control) was added to each well. The plate was pre-incubated at 37° C. for 10 minutes. The HDAC reaction was started by adding 50 μl of HDAC substrate Boc-Lys (Ac)-AMC (Anaspec, Inc Fremont, Calif., USA). The plate was incubated at 37° C. for 45 minutes. The reaction was stopped by adding 50 μL of Trypsin stop solution and plate further incubated at 37° C. for 15 minutes. Measuring the fluorescence at excitation wavelength of 360 nm and emission wavelength of 460 nm monitored the release of AMC. Buffer alone and substrate alone served as blank.

hERG = target: T1, hERG (Homo sapiens, UniProt Q12809); assay: hERG competitive binding assay (3H-Astemizole); conditions: hERG-CHO membrane, 1 nM 3H-Astemizole
T1 construct: expressed in transfected cells; host or cells: CHO cells (membrane preparation)
Method: The study was carried out to find our cardio safety of the test compounds. Brief procedure: The hERG competitive binding assay performed at a ligand concentration of 1 nM. The test compounds were dissolved in desired volume of 100% DMSO (stock conc. 50 mM). […] The test compound and membrane was pre-incubated for 10 Min at 30° C. 10 μL of ^3H-Astemizole was then added (final concentration of 1 nM), mixed well and incubated additionally for 90 min at 30° C. with mild shaking. At the end of reaction, binding was terminated by rapid filtration onto GF/C glass fiber filter mats, presoaked in 0.3% polyethyleneimine, followed by rapid washing 10 times with ice-cold wash buffer. Captured radiolabel was detected using a liquid scintillation counter. The percent inhibition of the compounds was calculated compared to the vehicle control.

P21 = assay: p21 induction in HeLa cells (Western Blot); assay type: cell-based; set-up: key: represented by the symbol ‘+’ which indicates the relative extent of modulation; ++: represented by the symbol ‘+’ which indicates the relative extent of modulation; +++: represented by the symbol ‘+’ which indicates the relative extent of modulation; ++++: represented by the symbol ‘+’ which indicates the relative extent of modulation; conditions: 24 hrs, 0.03-3.0 μM
Method: HeLa Cells were seeded at a density of 0.5×10^6 Cells/well into 6 well plates and incubated for 24 hrs. Compounds were tested at 5 different concentrations (0.03, 0.1, 0.3, 1.0, 3.0 μM) including corresponding controls. After 24 hrs cells were lysed and the cellular extract was used for measuring P21 induction by Western Blot using monoclonal Anti-p21 clone CP74 antibody (Sigma).

[2] = Table 9, Lung, read-out: Anti-proliferative activity (GI50) NCI-H460
[3] = Table 1, MTT, 48 hours, read-out: Cell growth inhibition (GI50 in μM) PA-1
[4] = Table 9, Ovary, read-out: Anti-proliferative activity (GI50) PA-1
[5] = read-out: IC50 (50% HDAC inhibitory concentration), Table 2, Hela nuclear extract
[6] = Table 1, MTT, 48 hours, read-out: Cell growth inhibition (GI50 in μM) NCI H460

T1 sequence (Q12809 whole entry): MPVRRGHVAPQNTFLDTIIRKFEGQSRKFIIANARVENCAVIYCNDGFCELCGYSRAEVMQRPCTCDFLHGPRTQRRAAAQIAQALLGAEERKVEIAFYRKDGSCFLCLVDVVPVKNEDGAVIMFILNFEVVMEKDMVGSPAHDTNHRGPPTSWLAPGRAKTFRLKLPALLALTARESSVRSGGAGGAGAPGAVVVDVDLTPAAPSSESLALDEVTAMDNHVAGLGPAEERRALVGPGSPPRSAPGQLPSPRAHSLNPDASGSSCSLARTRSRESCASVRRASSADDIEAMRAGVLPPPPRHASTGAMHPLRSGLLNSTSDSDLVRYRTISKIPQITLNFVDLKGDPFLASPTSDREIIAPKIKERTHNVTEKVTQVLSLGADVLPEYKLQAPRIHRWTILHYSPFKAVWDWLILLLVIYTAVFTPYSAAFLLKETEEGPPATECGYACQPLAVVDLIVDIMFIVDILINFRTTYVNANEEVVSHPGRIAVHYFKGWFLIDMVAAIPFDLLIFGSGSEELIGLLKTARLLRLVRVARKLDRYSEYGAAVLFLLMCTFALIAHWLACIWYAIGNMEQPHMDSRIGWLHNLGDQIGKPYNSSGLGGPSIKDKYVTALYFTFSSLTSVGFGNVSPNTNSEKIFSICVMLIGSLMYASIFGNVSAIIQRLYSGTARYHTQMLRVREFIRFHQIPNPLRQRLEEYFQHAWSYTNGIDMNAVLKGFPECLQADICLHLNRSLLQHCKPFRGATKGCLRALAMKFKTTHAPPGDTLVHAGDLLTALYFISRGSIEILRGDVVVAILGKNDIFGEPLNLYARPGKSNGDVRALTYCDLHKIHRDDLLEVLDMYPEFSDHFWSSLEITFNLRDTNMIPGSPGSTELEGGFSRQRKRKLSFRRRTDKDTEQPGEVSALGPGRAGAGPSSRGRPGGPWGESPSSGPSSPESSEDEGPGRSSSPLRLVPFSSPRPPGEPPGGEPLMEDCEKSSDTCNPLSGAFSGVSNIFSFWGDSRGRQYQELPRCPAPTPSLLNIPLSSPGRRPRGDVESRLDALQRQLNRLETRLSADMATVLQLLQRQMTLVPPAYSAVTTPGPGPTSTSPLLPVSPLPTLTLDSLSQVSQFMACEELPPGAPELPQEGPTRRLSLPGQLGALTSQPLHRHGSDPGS

Compound	EC50 (Caspase-3)	GI50 (NCI-H460; [2])	GI50 (PA-1; [3])	GI50 (PA-1; [4])	GI50 (786-O)	GI50 (SK-OV-3)	GI50 (NCI-H23)	GI50 (Hela-229)	HDAC % Inhibition (1 μM) ([1]; Hela nuclear extract)	HDAC % Inhibition (10 μM) ([1]; Hela nuclear extract)	IC50 [1, 5]	IC50 (hERG)	P21 induction (P21)	GI50 (NCI-H460; [6])	IC50 ([1]; Table 8, read-out: IC50 (nM) Hela nuclear extract)
CN(C)Cc1ccc(-c2cn(Cc3ccc(/C=C/C(=O)NO)cc3)nn2)cc1 [Example 21]	4090 nM	1.9 ± 0.74 µM	0.11 ± 0.04 µM	0.1 ± 0.01 µM	2000 ± 1100 nM	1700 ± 160 nM	500 ± 240 nM	700 ± 470 nM	98%	100%	8 nM	42.6 µM	–	–	–
O=C(NO)c1ccc(Cn2cc(-c3ccc(CN4CCOCC4)cc3)nn2)cc1 [Example 9, N-Hydroxy-4-[4-(4-morpholin-4-ylmethyl-phenyl)-[1,2,3]triazol-1-ylmethyl]-benzamide]	1500 nM	2.4 ± 0.85 µM	0.22 ± 0.03 µM	0.2 ± 0.037 µM	2500 ± 1010 nM	1800 ± 200 nM	2300 ± 1140 nM	1400 ± 260 nM	91%	99%	57 nM	> 100 µM	+	–	–
O=C(/C=C/c1ccc(Cn2cc(-c3ccc(CN4CCCC4)cc3)nn2)cc1)NO [Example 16, N-Hydroxy-3-{4-[4-(4-pyrrolidin-1-ylmethyl-phenyl)-[1,2,3]triazol-1-ylmethyl]-phenyl}-acrylamide]	6590 nM	0.3 ± 0.04 µM	0.09 ± 0.04 µM	0.08 ± 0.04 µM	2650 ± 80 nM	40 ± 16 nM	520 ± 40 nM	1000 ± 270 nM	99%	100%	4 nM	> 100 µM	+	0.4 µM	–
O=C(CCCCCCC(=O)Nc1ccccc1)NO [SAHA, Suberoylanilide Hydroxamic Acid, reference compound]	–	–	–	–	–	–	–	–	–	–	–	–	+++	–	–
O=C(/C=C/c1cccc(Cn2cc(-c3ccc(CN4CCOCC4)cc3)nn2)c1)NO [Example 25, N-Hydroxy-3-{3-[4-(4-morpholin-4-ylmethyl-phenyl)-[1,2,3]triazol-1-ylmethyl]-phenyl}-acrylamide hydrochloride]	3620 nM	0.45 ± 0.28 µM	0.04 ± 0.01 µM	0.04 ± 0.01 µM	1500 ± 700 nM	500 ± 1200 nM	400 ± 90 nM	600 ± 380 nM	100%	101%	1 nM	> 100 µM	++	0.8 µM	–
O=C(NO)c1ccc(Cn2cc(-c3ccc(CN4CCCC4)cc3)nn2)cc1 [Example 8, N-Hydroxy-4-[4-(4-pyrrolidin-1-ylmethyl-phenyl)-[1,2,3]triazol-1-ylmethyl]-benzamide]	1360 nM	1.9 ± 0.75 µM	0.15 ± 0.05 µM	0.1 ± 0.01 µM	4100 ± 1400 nM	1600 ± 100 nM	900 ± 250 nM	1100 ± 230 nM	95%	100%	3 nM	19.9 µM	+	2.1 µM	3 nM
